Consider five molecules from PubChem BioAssay AID256 (DTP/NCI, 2004).

The experiment concerns CD2F1 mice, L1210 leukemia ip, survival T/C. As to the kind of experiment: NCI In Vivo Anticancer Drug Screen. Data for tumor model L1210 Leukemia (intraperitoneal) in CD2F1 (CDF1) mice. The conditions noted are these: higher = longer survival. In outline:
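In this screen, transplantable tumors were grown in mice given either the compound or its vehicle. Results were expressed as the treated measurement relative to the control measurement.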

“And” between values parts separate entries of the source, which are not always exact repeats. Equal entries are not always repeated. Inconclusive results and toxic doses are left out.

For `S=P(N1CC1)(N1CC1)N1CC1`, the T/C is, setting by setting: (endpoint: mean survival time, dose: 0.5 mg/kg/injection, schedule: Q01DX009 (ip), vehicle: saline) 112 % of control; (endpoint: mean survival time, dose: 0.5 mg/kg/injection, schedule: Q03HX024 (ip), vehicle: saline) 112 % of control; (endpoint: mean survival time, dose: 1.0 mg/kg/injection, schedule: Q01DX005 (iv), vehicle: saline) 101 % of control; (endpoint: mean survival time, dose: 1.0 mg/kg/injection, schedule: Q01DX009 (ip), vehicle: saline) 96 % of control and 112 % of control; (endpoint: mean survival time, dose: 1.0 mg/kg/injection, schedule: Q01DX009 (sc), vehicle: saline) 114 % of control; (endpoint: mean survival time, dose: 1.0 mg/kg/injection, schedule: Q03HX008 (ip), vehicle: saline) 106 % of control. Moreover, the T/C (endpoint: mean survival time, dose: 1.0 mg/kg/injection, schedule: Q03HX016 (ip), vehicle: saline) was 104 % of control; the T/C (endpoint: mean survival time, dose: 1.5 mg/kg/injection, schedule: Q01DX009 (ip), vehicle: saline) is 111 % of control; the T/C (endpoint: mean survival time, dose: 2.0 mg/kg/injection, schedule: Q01DX005 (iv), vehicle: saline) was 108 % of control; the T/C (endpoint: mean survival time, dose: 2.0 mg/kg/injection, schedule: Q01DX009 (ip), vehicle: saline) was 120 % of control and 122 % of control (2×); the T/C (endpoint: mean survival time, dose: 2.0 mg/kg/injection, schedule: Q03DX003 (ip), vehicle: saline) is 112 % of control; the T/C (endpoint: mean survival time, dose: 2.0 mg/kg/injection, schedule: Q03HX008 (ip), vehicle: saline) was 118 % of control. Also, the T/C is, setting by setting: (endpoint: mean survival time, dose: 2.0 mg/kg/injection, schedule: Q03HX016 (ip), vehicle: saline) 117 % of control; (endpoint: mean survival time, dose: 2.0 mg/kg/injection, schedule: Q03HX024 (ip), vehicle: saline) 88 % of control; (endpoint: mean survival time, dose: 2.0 mg/kg/injection, schedule: Q04DX003 (ip), vehicle: saline) 101 % of control; (endpoint: mean survival time, dose: 2.5 mg/kg/injection, schedule: Q04DX003 (ip), vehicle: saline) 101 % of control; (endpoint: mean survival time, dose: 4.0 mg/kg/injection, schedule: Q01DX001 (iv), vehicle: saline) 117 % of control; (endpoint: mean survival time, dose: 4.0 mg/kg/injection, schedule: Q01DX001 (sc), vehicle: saline) 103 % of control. Also, the T/C (endpoint: mean survival time, dose: 4.0 mg/kg/injection, schedule: Q01DX007 (ip), vehicle: saline) is 158 % of control; the T/C (endpoint: mean survival time, dose: 4.0 mg/kg/injection, schedule: Q01DX009 (ip), vehicle: saline) is 154 % of control and 166 % of control and 171 % of control; the T/C (endpoint: mean survival time, dose: 4.0 mg/kg/injection, schedule: Q01DX009 (oral), vehicle: saline) is 122 % of control; the T/C (endpoint: mean survival time, dose: 4.0 mg/kg/injection, schedule: Q04DX003 (ip), vehicle: saline) was 120 % of control; the T/C (endpoint: mean survival time, dose: 6.0 mg/kg/injection, schedule: Q01DX001 (ip), vehicle: saline) is 115 % of control; the T/C (endpoint: mean survival time, dose: 7.7 mg/kg/injection, schedule: Q01DX001 (ip), vehicle: saline with Tween-80) was 112 % of control. Further, the T/C runs as follows: (endpoint: mean survival time, dose: 7.7 mg/kg/injection, schedule: Q01DX001 (ip), vehicle: saline) 123 % of control and 106 % of control; (endpoint: mean survival time, dose: 8.0 mg/kg/injection, schedule: Q01DX001 (ip), vehicle: saline) 110 % of control; (endpoint: mean survival time, dose: 8.0 mg/kg/injection, schedule: Q01DX001 (sc), vehicle: saline) 115 % of control; (endpoint: mean survival time, dose: 8.0 mg/kg/injection, schedule: Q01DX007 (ip), vehicle: saline) 110 % of control; (endpoint: mean survival time, dose: 8.0 mg/kg/injection, schedule: Q01DX009 (sc), vehicle: saline) 114 % of control; (endpoint: mean survival time, dose: 8.0 mg/kg/injection, schedule: Q03DX003 (ip), vehicle: saline) 209 % of control. Besides, the T/C was 179 % of control and 183 % of control (endpoint: mean survival time, dose: 8.0 mg/kg/injection, schedule: Q04DX003 (ip), vehicle: saline); 122 % of control (endpoint: mean survival time, dose: 8.0 mg/kg/injection, schedule: Q08DX002 (ip), vehicle: saline); 153 % of control (endpoint: mean survival time, dose: 10.0 mg/kg/injection, schedule: Q04DX003 (ip), vehicle: saline); 122 % of control (endpoint: mean survival time, dose: 10.9 mg/kg/injection, schedule: Q01DX001 (ip), vehicle: saline with Tween-80); 122 % of control and 124 % of control (endpoint: mean survival time, dose: 10.9 mg/kg/injection, schedule: Q01DX001 (ip), vehicle: saline); 153 % of control (endpoint: mean survival time, dose: 12.0 mg/kg/injection, schedule: Q01DX001 (ip), vehicle: saline). Besides, the T/C is, setting by setting: (endpoint: mean survival time, dose: 15.0 mg/kg/injection, schedule: Q01DX001 (ip), vehicle: saline) 161 % of control; (endpoint: mean survival time, dose: 16.0 mg/kg/injection, schedule: Q01DX001 (ip), vehicle: saline) 154 % of control; (endpoint: mean survival time, dose: 16.0 mg/kg/injection, schedule: Q01DX001 (iv), vehicle: saline) 155 % of control; (endpoint: mean survival time, dose: 16.0 mg/kg/injection, schedule: Q01DX009 (ip), vehicle: saline) 96 % of control; (endpoint: mean survival time, dose: 16.0 mg/kg/injection, schedule: Q01DX009 (oral), vehicle: saline) 120 % of control; (endpoint: mean survival time, dose: 16.0 mg/kg/injection, schedule: Q04DX003 (ip), vehicle: saline) 95 % of control. The T/C (endpoint: mean survival time, dose: 20.0 mg/kg/injection, schedule: Q04DX003 (ip), vehicle: saline) is 124 % of control; the T/C (endpoint: mean survival time, dose: 22.4 mg/kg/injection, schedule: Q01DX001 (ip), vehicle: saline with Tween-80) was 163 % of control; the T/C (endpoint: mean survival time, dose: 32.0 mg/kg/injection, schedule: Q01DX001 (ip), vehicle: saline with Tween-80) is 89 % of control; the T/C (endpoint: mean survival time, dose: 32.0 mg/kg/injection, schedule: Q01DX001 (oral), vehicle: saline) is 154 % of control; the T/C (endpoint: median survival time, dose: 1.56 mg/kg/injection, schedule: Q01DX009 (ip), vehicle: saline) was 117 % of control; the T/C (endpoint: median survival time, dose: 3.0 mg/kg/injection, schedule: Q01DX009 (ip), vehicle: water) is 97 % of control. The T/C reads like this: (endpoint: median survival time, dose: 3.13 mg/kg/injection, schedule: Q01DX009 (ip), vehicle: saline) 164 % of control and 178 % of control; (endpoint: median survival time, dose: 6.0 mg/kg/injection, schedule: Q01DX009 (ip), vehicle: water) 95 % of control; (endpoint: median survival time, dose: 8.0 mg/kg/injection, schedule: Q01DX009 (ip), vehicle: water) 88 % of control; (endpoint: median survival time, dose: 12.5 mg/kg/injection, schedule: Q01DX009 (ip), vehicle: saline) 88 % of control and 107 % of control; (endpoint: median survival time, dose: 16.0 mg/kg/injection, schedule: Q01DX009 (ip), vehicle: water) 77 % of control; (endpoint: median survival time, dose: 20.0 mg/kg/injection, schedule: Q01DX001 (ip), vehicle: saline) 172 % of control. Also, the T/C (endpoint: median survival time, dose: 25.0 mg/kg/injection, schedule: Q01DX001 (ip), vehicle: saline) was 193 % of control.

For the molecule `CC1C(C)C1Cl` (stereo unspecified), the T/C runs as follows: (endpoint: mean survival time, dose: 50.0 mg/kg/injection, schedule: Q01DX005 (ip), vehicle: saline) 95 % of control; (endpoint: mean survival time, dose: 50.0 mg/kg/injection, schedule: Q01DX009 (ip), vehicle: saline) 89 % of control; (endpoint: mean survival time, dose: 50.0 mg/kg/injection, schedule: Q04DX002 (ip), vehicle: saline) 94 % of control; (endpoint: mean survival time, dose: 100.0 mg/kg/injection, schedule: Q01DX005 (ip), vehicle: saline) 95 % of control; (endpoint: mean survival time, dose: 100.0 mg/kg/injection, schedule: Q01DX009 (ip), vehicle: saline) 93 % of control; (endpoint: mean survival time, dose: 100.0 mg/kg/injection, schedule: Q04DX002 (ip), vehicle: saline) 97 % of control. Besides, the T/C is, setting by setting: (endpoint: mean survival time, dose: 200.0 mg/kg/injection, schedule: Q01DX005 (ip), vehicle: saline) 109 % of control; (endpoint: mean survival time, dose: 200.0 mg/kg/injection, schedule: Q01DX009 (ip), vehicle: saline) 93 % of control; (endpoint: mean survival time, dose: 200.0 mg/kg/injection, schedule: Q04DX002 (ip), vehicle: saline) 94 % of control; (endpoint: mean survival time, dose: 400.0 mg/kg/injection, schedule: Q01DX005 (ip), vehicle: saline) 106 % of control; (endpoint: mean survival time, dose: 400.0 mg/kg/injection, schedule: Q01DX009 (ip), vehicle: saline) 93 % of control; (endpoint: mean survival time, dose: 400.0 mg/kg/injection, schedule: Q04DX002 (ip), vehicle: saline) 97 % of control.

Regarding `CCCCCCCCCCCCCCCC(=O)OCC1OC(N2C=CC(=O)CC2=O)C(O)C1O` (stereo unspecified), the T/C is, setting by setting: (endpoint: median survival time, dose: 13.0 mg/kg/injection, schedule: Q01DX009 (ip), vehicle: saline + alcohol) 174 % of control; (endpoint: median survival time, dose: 20.0 mg/kg/injection, schedule: Q01DX009 (ip), vehicle: saline + alcohol) 188 % of control; (endpoint: median survival time, dose: 30.0 mg/kg/injection, schedule: Q01DX009 (ip), vehicle: saline + alcohol) 174 % of control.

For the molecule `Cc1cc(C)c(C)c(C(=O)C(=O)c2ccccc2)c1`, the T/C by setting is: (endpoint: mean survival time, dose: 75.0 mg/kg/injection, schedule: Q01DX001 (ip), vehicle: other) 93 % of control; (endpoint: mean survival time, dose: 150.0 mg/kg/injection, schedule: Q01DX001 (ip), vehicle: other) 94 % of control; (endpoint: mean survival time, dose: 300.0 mg/kg/injection, schedule: Q01DX001 (ip), vehicle: other) 100 % of control.

Turning to `CSc1nc(N)c(C#N)cc1C#N`, the T/C runs as follows: (endpoint: mean survival time, dose: 100.0 mg/kg/injection, schedule: Q01DX001 (ip), vehicle: saline with Tween-80) 100 % of control; (endpoint: mean survival time, dose: 200.0 mg/kg/injection, schedule: Q01DX001 (ip), vehicle: saline with Tween-80) 89 % of control; (endpoint: mean survival time, dose: 400.0 mg/kg/injection, schedule: Q01DX001 (ip), vehicle: saline with Tween-80) 89 % of control.
